Laboratory results as given in paper PMC4823954, “From fighting depression to conquering tumors: a novel tricyclic thiazepine compound as a tubulin polymerization inhibitor” (Cell Death & Disease, 2016).

Legend:
Assay in all cases: KINOMEscan
Type in all cases: binding
Conditions in all cases: read-out: % Ctrl
AAK1 = target: T1, AAK1 (Homo sapiens, UniProt Q2M2I8)
T1 construct: purchased DiscoveRx KINOMEscan
In short: (§1)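 Competition binding panel of 442 non-mutant kinases: test compound at 5 and 10 μM competed with an active-site-directed ligand for 1 h with shaking. Bound kinase was eluted with 0.5 μM ligand and quantified by qPCR; %Ctrl = (compound − positive control)/(DMSO − positive control) × 100, lower meaning tighter binding.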

[1] = target: T2, ABL1(H396P)-nonphosphorylated (Homo sapiens, UniProt P00519, H396P)
T2 construct: purchased DiscoveRx KINOMEscan

[2] = target: T3, ABL1(Q252H)-nonphosphorylated (Homo sapiens, UniProt P00519, Q252H)
T3 construct: purchased DiscoveRx KINOMEscan

AXL = target: T4, AXL (Homo sapiens, UniProt P30530)
T4 construct: purchased DiscoveRx KINOMEscan
In short: as §1

BRAF = target: T5, BRAF (Homo sapiens, UniProt P15056)
T5 construct: purchased DiscoveRx KINOMEscan
In short: as §1

CAMK2D = target: T6, CAMK2D (Homo sapiens, UniProt Q13557)
T6 construct: purchased DiscoveRx KINOMEscan
In short: as §1

CDK5 = target: T7, CDK5 (Homo sapiens, UniProt Q00535)
T7 construct: purchased DiscoveRx KINOMEscan
In short: as §1

CSF1R = target: T8, CSF1R (Homo sapiens, UniProt P07333)
T8 construct: purchased DiscoveRx KINOMEscan
In short: as §1

ERK3 = target: T9, ERK3 (Homo sapiens, UniProt Q16659)
T9 construct: purchased DiscoveRx KINOMEscan
In short: as §1

GRK7 = target: T10, GRK7 (Homo sapiens, UniProt Q8WTQ7)
T10 construct: purchased DiscoveRx KINOMEscan
In short: as §1

IRAK1 = target: T11, IRAK1 (Homo sapiens, UniProt P51617)
T11 construct: purchased DiscoveRx KINOMEscan
In short: as §1

KIT = target: T12, KIT (Homo sapiens, UniProt P10721)
T12 construct: purchased DiscoveRx KINOMEscan
In short: as §1

LATS2 = target: T13, LATS2 (Homo sapiens, UniProt Q9NRM7)
T13 construct: purchased DiscoveRx KINOMEscan
In short: as §1

LIMK1 = target: T14, LIMK1 (Homo sapiens, UniProt P53667)
T14 construct: purchased DiscoveRx KINOMEscan
In short: as §1

LKB1 = target: T15, LKB1 (Homo sapiens, UniProt Q15831)
T15 construct: purchased DiscoveRx KINOMEscan
In short: as §1

MAK = target: T16, MAK (Homo sapiens, UniProt P20794)
T16 construct: purchased DiscoveRx KINOMEscan
In short: as §1

MAP3K3 = target: T17, MAP3K3 (Homo sapiens, UniProt Q99759)
T17 construct: purchased DiscoveRx KINOMEscan
In short: as §1

MEK3 = target: T18, MEK3 (Homo sapiens, UniProt P46734)
T18 construct: purchased DiscoveRx KINOMEscan
In short: as §1

MLK1 = target: T19, MLK1 (Homo sapiens, UniProt P80192)
T19 construct: purchased DiscoveRx KINOMEscan
In short: as §1

PIK3C2G = target: T20, PIK3C2G (Homo sapiens, UniProt O75747)
T20 construct: purchased DiscoveRx KINOMEscan
In short: as §1

PIK3CB = target: T21, PIK3CB (Homo sapiens, UniProt P42338)
T21 construct: purchased DiscoveRx KINOMEscan
In short: as §1

RIPK5 = target: T22, RIPK5 (Homo sapiens, UniProt Q6XUX3)
T22 construct: purchased DiscoveRx KINOMEscan
In short: as §1

[3] = target: T23, RPS6KA5(Kin.Dom.1-N-terminal) (Homo sapiens, UniProt O75582)
T23 construct: RPS6KA5(Kin.Dom.1-N-terminal); purchased DiscoveRx KINOMEscan
In short: as §1

SGK3 = target: T24, SGK3 (Homo sapiens, UniProt Q96BR1)
T24 construct: purchased DiscoveRx KINOMEscan
In short: as §1

SLK = target: T25, SLK (Homo sapiens, UniProt Q9H2G2)
T25 construct: purchased DiscoveRx KINOMEscan
In short: as §1

SRMS = target: T26, SRMS (Homo sapiens, UniProt Q9H3Y6)
T26 construct: purchased DiscoveRx KINOMEscan
In short: as §1

TBK1 = target: T27, TBK1 (Homo sapiens, UniProt Q9UHD2)
T27 construct: purchased DiscoveRx KINOMEscan
In short: as §1

TGFBR1 = target: T28, TGFBR1 (Homo sapiens, UniProt P36897)
T28 construct: purchased DiscoveRx KINOMEscan
In short: as §1

TRKA = target: T29, TRKA (Homo sapiens, UniProt P04629)
T29 construct: purchased DiscoveRx KINOMEscan
In short: as §1

WEE2 = target: T30, WEE2 (Homo sapiens, UniProt P0C1S8)
T30 construct: purchased DiscoveRx KINOMEscan
In short: as §1

T9 sequence (Q16659 whole entry): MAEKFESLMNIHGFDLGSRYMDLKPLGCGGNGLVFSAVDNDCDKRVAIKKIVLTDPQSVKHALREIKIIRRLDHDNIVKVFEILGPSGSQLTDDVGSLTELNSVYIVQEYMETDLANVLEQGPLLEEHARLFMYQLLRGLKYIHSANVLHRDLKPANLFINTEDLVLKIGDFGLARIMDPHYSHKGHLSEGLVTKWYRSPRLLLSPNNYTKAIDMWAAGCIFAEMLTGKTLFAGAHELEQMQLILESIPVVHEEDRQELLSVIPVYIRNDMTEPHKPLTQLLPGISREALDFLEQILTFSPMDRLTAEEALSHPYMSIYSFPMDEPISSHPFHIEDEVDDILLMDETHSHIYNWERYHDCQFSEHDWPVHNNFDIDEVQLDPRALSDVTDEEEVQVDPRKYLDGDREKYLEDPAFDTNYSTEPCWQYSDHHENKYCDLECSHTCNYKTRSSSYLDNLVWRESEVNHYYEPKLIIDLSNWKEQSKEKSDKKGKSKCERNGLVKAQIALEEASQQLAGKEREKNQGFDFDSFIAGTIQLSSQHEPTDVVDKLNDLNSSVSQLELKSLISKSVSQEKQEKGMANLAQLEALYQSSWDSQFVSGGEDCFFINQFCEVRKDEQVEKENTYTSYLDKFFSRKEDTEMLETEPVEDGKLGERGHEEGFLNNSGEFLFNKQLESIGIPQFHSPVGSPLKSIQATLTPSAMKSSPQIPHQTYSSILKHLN
T8 sequence (P07333 20-972): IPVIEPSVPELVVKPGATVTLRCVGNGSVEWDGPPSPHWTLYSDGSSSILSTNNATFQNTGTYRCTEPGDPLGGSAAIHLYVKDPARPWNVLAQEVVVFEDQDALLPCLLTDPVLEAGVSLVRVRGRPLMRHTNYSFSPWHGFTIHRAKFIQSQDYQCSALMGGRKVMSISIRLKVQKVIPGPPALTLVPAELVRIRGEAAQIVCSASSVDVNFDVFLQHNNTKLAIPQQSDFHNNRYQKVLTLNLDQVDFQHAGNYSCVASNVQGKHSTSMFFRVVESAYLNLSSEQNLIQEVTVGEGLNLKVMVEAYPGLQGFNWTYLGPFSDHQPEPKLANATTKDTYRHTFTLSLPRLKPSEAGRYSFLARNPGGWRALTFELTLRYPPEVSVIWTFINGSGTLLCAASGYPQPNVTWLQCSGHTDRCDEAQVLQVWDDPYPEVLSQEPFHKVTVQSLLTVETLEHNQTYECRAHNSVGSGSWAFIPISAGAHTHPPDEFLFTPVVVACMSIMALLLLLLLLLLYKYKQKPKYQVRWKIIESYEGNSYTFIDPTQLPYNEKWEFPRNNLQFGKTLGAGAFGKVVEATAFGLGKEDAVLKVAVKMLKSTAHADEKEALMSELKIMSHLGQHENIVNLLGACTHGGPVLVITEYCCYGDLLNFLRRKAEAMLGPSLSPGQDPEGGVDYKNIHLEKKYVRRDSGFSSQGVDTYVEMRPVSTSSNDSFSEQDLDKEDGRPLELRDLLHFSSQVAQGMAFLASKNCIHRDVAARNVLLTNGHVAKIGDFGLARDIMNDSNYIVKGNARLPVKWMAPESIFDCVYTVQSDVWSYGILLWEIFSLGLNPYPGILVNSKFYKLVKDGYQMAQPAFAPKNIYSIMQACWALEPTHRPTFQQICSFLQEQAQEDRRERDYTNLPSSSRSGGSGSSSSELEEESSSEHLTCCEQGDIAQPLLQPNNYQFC
T11 sequence (P51617 whole entry): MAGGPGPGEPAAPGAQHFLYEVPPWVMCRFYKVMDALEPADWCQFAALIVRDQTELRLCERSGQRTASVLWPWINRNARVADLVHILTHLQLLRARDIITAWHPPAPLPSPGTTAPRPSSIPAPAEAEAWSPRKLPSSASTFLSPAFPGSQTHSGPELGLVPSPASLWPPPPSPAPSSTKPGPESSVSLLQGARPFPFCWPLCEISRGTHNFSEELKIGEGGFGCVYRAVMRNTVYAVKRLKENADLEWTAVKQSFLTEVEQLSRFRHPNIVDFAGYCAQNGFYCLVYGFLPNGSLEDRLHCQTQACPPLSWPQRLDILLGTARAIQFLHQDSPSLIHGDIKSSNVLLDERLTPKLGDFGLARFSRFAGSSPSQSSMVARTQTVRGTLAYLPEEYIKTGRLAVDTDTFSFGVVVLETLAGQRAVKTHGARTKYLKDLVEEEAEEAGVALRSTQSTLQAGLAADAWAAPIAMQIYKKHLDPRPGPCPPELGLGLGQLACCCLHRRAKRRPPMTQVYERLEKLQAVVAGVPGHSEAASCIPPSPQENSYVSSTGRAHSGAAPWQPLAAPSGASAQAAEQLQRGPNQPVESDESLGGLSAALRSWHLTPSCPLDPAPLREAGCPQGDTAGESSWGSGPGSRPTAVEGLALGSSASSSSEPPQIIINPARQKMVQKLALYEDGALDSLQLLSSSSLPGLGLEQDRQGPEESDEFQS
T21 sequence (P42338 whole entry): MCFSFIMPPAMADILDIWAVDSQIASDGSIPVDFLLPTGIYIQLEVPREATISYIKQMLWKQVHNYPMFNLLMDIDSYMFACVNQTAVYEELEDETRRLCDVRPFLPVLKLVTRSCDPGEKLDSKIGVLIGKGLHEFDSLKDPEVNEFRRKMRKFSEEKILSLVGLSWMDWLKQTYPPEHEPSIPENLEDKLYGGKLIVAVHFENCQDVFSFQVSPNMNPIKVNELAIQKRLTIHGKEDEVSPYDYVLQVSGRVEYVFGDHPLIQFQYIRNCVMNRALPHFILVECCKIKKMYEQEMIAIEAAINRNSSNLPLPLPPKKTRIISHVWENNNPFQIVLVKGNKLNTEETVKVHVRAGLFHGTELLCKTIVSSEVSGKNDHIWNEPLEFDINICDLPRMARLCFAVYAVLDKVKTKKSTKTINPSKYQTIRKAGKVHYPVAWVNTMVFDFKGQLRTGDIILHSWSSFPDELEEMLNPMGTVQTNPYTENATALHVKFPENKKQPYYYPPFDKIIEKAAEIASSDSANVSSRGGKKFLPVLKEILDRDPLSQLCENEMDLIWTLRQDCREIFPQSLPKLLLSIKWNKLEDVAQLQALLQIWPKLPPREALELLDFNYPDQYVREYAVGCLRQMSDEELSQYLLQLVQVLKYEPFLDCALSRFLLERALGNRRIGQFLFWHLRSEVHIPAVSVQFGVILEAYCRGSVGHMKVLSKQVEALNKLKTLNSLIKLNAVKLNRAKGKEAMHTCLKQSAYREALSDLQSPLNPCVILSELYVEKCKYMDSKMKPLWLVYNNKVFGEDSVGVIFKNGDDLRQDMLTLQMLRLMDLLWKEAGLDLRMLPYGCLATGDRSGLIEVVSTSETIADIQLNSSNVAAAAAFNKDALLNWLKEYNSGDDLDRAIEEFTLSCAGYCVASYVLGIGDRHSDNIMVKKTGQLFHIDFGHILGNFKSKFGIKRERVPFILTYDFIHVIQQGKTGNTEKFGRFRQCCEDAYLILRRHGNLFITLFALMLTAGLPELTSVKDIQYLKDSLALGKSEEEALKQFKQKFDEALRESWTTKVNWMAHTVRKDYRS
T20 sequence (O75747 whole entry): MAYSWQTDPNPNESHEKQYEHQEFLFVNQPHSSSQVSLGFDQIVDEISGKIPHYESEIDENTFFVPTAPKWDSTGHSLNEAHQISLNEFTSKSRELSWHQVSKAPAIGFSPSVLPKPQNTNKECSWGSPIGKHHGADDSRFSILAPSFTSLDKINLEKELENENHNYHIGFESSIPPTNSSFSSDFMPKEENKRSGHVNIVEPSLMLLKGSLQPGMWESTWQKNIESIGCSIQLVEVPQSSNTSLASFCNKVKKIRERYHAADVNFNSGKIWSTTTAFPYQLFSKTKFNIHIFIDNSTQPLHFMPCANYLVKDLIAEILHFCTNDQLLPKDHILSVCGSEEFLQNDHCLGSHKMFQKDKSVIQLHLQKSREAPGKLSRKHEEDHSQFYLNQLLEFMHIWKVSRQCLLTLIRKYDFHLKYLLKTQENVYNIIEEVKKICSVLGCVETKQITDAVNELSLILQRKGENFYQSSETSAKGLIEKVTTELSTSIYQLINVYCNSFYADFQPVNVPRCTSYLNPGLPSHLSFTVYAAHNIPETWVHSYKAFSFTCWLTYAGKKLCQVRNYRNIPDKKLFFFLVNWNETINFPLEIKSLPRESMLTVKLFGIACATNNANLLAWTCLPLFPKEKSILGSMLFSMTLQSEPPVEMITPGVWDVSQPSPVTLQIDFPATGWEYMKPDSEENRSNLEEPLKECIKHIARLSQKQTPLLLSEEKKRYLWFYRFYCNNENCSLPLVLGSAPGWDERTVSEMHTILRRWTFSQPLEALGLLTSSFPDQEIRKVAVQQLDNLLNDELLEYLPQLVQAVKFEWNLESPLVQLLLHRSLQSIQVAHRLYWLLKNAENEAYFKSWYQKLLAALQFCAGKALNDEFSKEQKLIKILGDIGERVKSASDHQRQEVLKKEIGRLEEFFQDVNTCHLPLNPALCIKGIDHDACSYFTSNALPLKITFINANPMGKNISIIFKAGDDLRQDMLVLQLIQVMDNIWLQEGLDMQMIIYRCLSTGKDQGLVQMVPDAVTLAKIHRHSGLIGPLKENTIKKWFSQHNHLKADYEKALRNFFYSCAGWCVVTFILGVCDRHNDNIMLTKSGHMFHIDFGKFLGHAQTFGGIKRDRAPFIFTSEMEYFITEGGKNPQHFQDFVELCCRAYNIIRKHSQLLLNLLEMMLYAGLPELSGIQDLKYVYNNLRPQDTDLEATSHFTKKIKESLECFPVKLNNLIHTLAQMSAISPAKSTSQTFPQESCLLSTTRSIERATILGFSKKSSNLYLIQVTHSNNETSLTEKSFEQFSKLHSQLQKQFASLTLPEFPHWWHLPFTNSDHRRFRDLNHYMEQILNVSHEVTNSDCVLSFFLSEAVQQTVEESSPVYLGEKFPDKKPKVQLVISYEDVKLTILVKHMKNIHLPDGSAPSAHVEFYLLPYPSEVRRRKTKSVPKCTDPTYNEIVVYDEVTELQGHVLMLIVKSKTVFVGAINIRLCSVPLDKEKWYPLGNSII

Compound: Cc1ccc(C2=Nc3cccnc3S(=O)(=O)c3ccccc32)cc1 [TBPT, 6-(p-tolyl)benzo[f] pyrido[2,3-b][1,4] thiazepine 11,11-dioxide]
- remaining binding at 5 µM (AAK1; 5 μM): 100%
- remaining binding at 10 µM (AAK1; 10 μM): 89%
- remaining binding at 5 µM ([1]; 5 μM): 62%
- remaining binding at 10 µM ([1]; 10 μM): 77%
- remaining binding at 5 µM ([2]; 5 μM): 79%
- remaining binding at 10 µM ([2]; 10 μM): 100%
- remaining binding at 5 µM (AXL; 5 μM): 98%
- remaining binding at 10 µM (AXL; 10 μM): 100%
- remaining binding at 5 µM (BRAF; 5 μM): 100%
- remaining binding at 10 µM (BRAF; 10 μM): 100%
- remaining binding at 5 µM (CAMK2D; 5 μM): 94%
- remaining binding at 10 µM (CAMK2D; 10 μM): 100%
- remaining binding at 5 µM (CDK5; 5 μM): 85%
- remaining binding at 10 µM (CDK5; 10 μM): 98%
- remaining binding at 5 µM (CSF1R; 5 μM): 93%
- remaining binding at 10 µM (CSF1R; 10 μM): 100%
- remaining binding at 5 µM (ERK3; 5 μM): 100%
- remaining binding at 10 µM (ERK3; 10 μM): 100%
- remaining binding at 5 µM (GRK7; 5 μM): 100%
- remaining binding at 10 µM (GRK7; 10 μM): 100%
- remaining binding at 5 µM (IRAK1; 5 μM): 100%
- remaining binding at 10 µM (IRAK1; 10 μM): 93%
- remaining binding at 5 µM (KIT; 5 μM): 72%
- remaining binding at 10 µM (KIT; 10 μM): 100%
- remaining binding at 5 µM (LATS2; 5 μM): 100%
- remaining binding at 10 µM (LATS2; 10 μM): 100%
- remaining binding at 5 µM (LIMK1; 5 μM): 100%
- remaining binding at 10 µM (LIMK1; 10 μM): 100%
- remaining binding at 5 µM (LKB1; 5 μM): 100%
- remaining binding at 10 µM (LKB1; 10 μM): 89%
- remaining binding at 5 µM (MAK; 5 μM): 94%
- remaining binding at 10 µM (MAK; 10 μM): 100%
- remaining binding at 5 µM (MAP3K3; 5 μM): 79%
- remaining binding at 10 µM (MAP3K3; 10 μM): 92%
- remaining binding at 5 µM (MEK3; 5 μM): 100%
- remaining binding at 10 µM (MEK3; 10 μM): 100%
- remaining binding at 5 µM (MLK1; 5 μM): 100%
- remaining binding at 10 µM (MLK1; 10 μM): 100%
- remaining binding at 5 µM (PIK3C2G; 5 μM): 100%
- remaining binding at 10 µM (PIK3C2G; 10 μM): 100%
- remaining binding at 5 µM (PIK3CB; 5 μM): 36%
- remaining binding at 10 µM (PIK3CB; 10 μM): 100%
- remaining binding at 5 µM (RIPK5; 5 μM): 58%
- remaining binding at 10 µM (RIPK5; 10 μM): 83%
- remaining binding at 5 µM ([3]; 5 μM): 100%
- remaining binding at 10 µM ([3]; 10 μM): 100%
- remaining binding at 5 µM (SGK3; 5 μM): 100%
- remaining binding at 10 µM (SGK3; 10 μM): 99%
- remaining binding at 5 µM (SLK; 5 μM): 100%
- remaining binding at 10 µM (SLK; 10 μM): 86%
- remaining binding at 5 µM (SRMS; 5 μM): 87%
- remaining binding at 10 µM (SRMS; 10 μM): 97%
- remaining binding at 5 µM (TBK1; 5 μM): 100%
- remaining binding at 10 µM (TBK1; 10 μM): 100%
- remaining binding at 5 µM (TGFBR1; 5 μM): 100%
- remaining binding at 10 µM (TGFBR1; 10 μM): 85%
- remaining binding at 5 µM (TRKA; 5 μM): 100%
- remaining binding at 10 µM (TRKA; 10 μM): 97%
- remaining binding at 5 µM (WEE2; 5 μM): 100%
- remaining binding at 10 µM (WEE2; 10 μM): 100%
